Data on 11 compounds can be found in ChEMBL document CHEMBL1155406, “Synthesis and chain-dependent antifungal activity of long-chain 2H-azirine-carboxylate esters related to dysidazirine” (Bioorg Med Chem Lett, 2010).

Data set [1] has as its system Nakaseomyces glabratus. As to the kind of experiment: Antifungal activity against Candida glabrata at 64 ug by broth microdilution method. The class given is functional, organism-based. (In broth dilution the organism is exposed to a series of concentrations in liquid medium.)
Data set [2] relates to Candida albicans. As to the kind of experiment: Antifungal activity against fluconazole-resistant Candida albicans 96-489 at 64 ug by broth microdilution method. The class given is functional, organism-based.
Data set [3] has as its system Candida albicans. As to the kind of experiment: Antifungal activity against fluconazole-resistant Candida albicans UCD-FRI at 64 ug by broth microdilution method. The class given is functional, organism-based.
Data set [4] deals with Cryptococcus gattii. Kind of data set: Antifungal activity against Cryptococcus neoformans var. gatti at 64 ug by broth microdilution method. It counts as functional, organism-based. The conditions noted are these: Cryptococcus bacillisporus.
For data set [5], the system named is Cryptococcus neoformans. Kind of data set: Antifungal activity against Cryptococcus neoformans var. grubii at 64 ug by broth microdilution method. It counts as functional, organism-based.
Data set [6] has as its system Pichia kudriavzevii. As to the kind of experiment: Antifungal activity against fluconazole-resistant Candida krusei at 64 ug by broth microdilution method. The class given is functional, organism-based.
Data set [7] concerns Candida albicans. Kind of data set: Antifungal activity against Candida albicans ATCC 14503 at 64 ug by broth microdilution method. The class given is functional, organism-based.
Data set [8] has as its system Nakaseomyces glabratus. As to the kind of experiment: Antifungal activity against Candida glabrata by broth microdilution method. The class given is functional.
Another data set deals with HCT-116. As to the kind of experiment: Cytotoxicity against human HCT116 cells. The class given is cell-based.
For data set [9], the system named is Candida albicans. As to the kind of experiment: Antifungal activity against fluconazole-resistant Candida albicans UCD-FRI by broth microdilution method. The class given is functional, organism-based.
For data set [10], the system named is Candida albicans. Kind of data set: Antifungal activity against fluconazole-resistant Candida albicans 96-489 by broth microdilution method. It counts as functional, organism-based.
Data set [11] has as its system Candida albicans. As to the kind of experiment: Antifungal activity against Candida albicans ATCC 14503 by broth microdilution method. The class given is functional, organism-based.
In data set [12] the test system is Pichia kudriavzevii. As to the kind of experiment: Antifungal activity against fluconazole-resistant Candida krusei by broth microdilution method. The class given is functional, organism-based.
The test system of data set [13] is Cryptococcus gattii. As to the kind of experiment: Antifungal activity against Cryptococcus neoformans var. gatti by broth microdilution method. The class given is functional, organism-based. The conditions noted are these: Cryptococcus bacillisporus.
Data set [14] has as its system Cryptococcus neoformans. As to the kind of experiment: Antifungal activity against Cryptococcus neoformans var. grubii by broth microdilution method. The class given is functional, organism-based.

Calls of active or inactive are those of the source. No cut-off for these calls is given here.

In the case of `CCCCCCCCCCCCCCCC1=N[C@H]1C(=O)OC`, the result in the data set on Nakaseomyces glabratus [1], in the data set on Candida albicans [2], in the data set with Candida albicans [3], in the data set on Cryptococcus gattii [4], in the data set with Cryptococcus neoformans [5] and in the data set with Pichia kudriavzevii [6] was inactive. In addition, in the data set on Candida albicans [7], the outcome was inactive.
As to `CCCCCCCCCCCCC/C=C/[C@@H](O)[C@@H](N)CO` [SPHINGOSINE], in the data set with Nakaseomyces glabratus [8], the Activity came out at 30 µg/mL.
For `COC(=O)[C@H]1N=C1/C=C/CCCCCCCCCC=C(Br)Br`, the result with Nakaseomyces glabratus [1], in the data set with Candida albicans [2], with Candida albicans [3], with Cryptococcus gattii [4], in the data set on Cryptococcus neoformans [5] and in the data set with Pichia kudriavzevii [6] was inactive. The result with Candida albicans [7] was inactive. The outcome in the data set with HCT-116 was Active.
For `COC(=O)[C@@H]1N=C1/C=C\CCCCCCCCCCCC(C)(C)C`, the result in the data set with Nakaseomyces glabratus [1], in the data set with Candida albicans [2], in the data set with Candida albicans [3], in the data set with Cryptococcus gattii [4], in the data set with Cryptococcus neoformans [5] and with Pichia kudriavzevii [6] was inactive. In the data set with Candida albicans [7], the outcome was inactive.
Turning to `COC(=O)[C@H]1N=C1/C=C/CCCCCCCCCC=C(Cl)Cl`, the outcome in the data set with Nakaseomyces glabratus [1], with Candida albicans [2], in the data set on Candida albicans [3], with Cryptococcus gattii [4], in the data set on Cryptococcus neoformans [5] and in the data set on Pichia kudriavzevii [6] was inactive. For the same compound, the result in the data set with Candida albicans [7] was inactive. The result with HCT-116 was Active.
Consider `COC(=O)[C@H]1N=C1/C=C\CCCCCCCCCC=C(Br)Br`, for which the result in the data set on Nakaseomyces glabratus [1], with Candida albicans [2], in the data set on Candida albicans [3], in the data set with Cryptococcus gattii [4], in the data set on Cryptococcus neoformans [5] and with Pichia kudriavzevii [6] was inactive. In addition, the result in the data set on Candida albicans [7] was inactive. Further, in the data set on HCT-116, the outcome was Active.
Turning to `CCCCC/C=C\C1=N[C@H]1C(=O)OC`, the result with Candida albicans [9] was inactive.
Take `CCCCCCCCCC/C=C\C1=N[C@H]1C(=O)OC`: the outcome in the data set on Candida albicans [10], with Candida albicans [11], in the data set on Pichia kudriavzevii [12], in the data set with Nakaseomyces glabratus [8], in the data set with Cryptococcus gattii [13] and in the data set on Candida albicans [9] was Active. Also, the result with Cryptococcus neoformans [14] was Active.
For `COC(=O)[C@H]1N=C1/C=C/CCCCCCCCC/C=C(/Cl)Br`, the result in the data set with Nakaseomyces glabratus [1], in the data set on Candida albicans [2], in the data set with Candida albicans [3], in the data set on Cryptococcus gattii [4], in the data set with Cryptococcus neoformans [5] and in the data set on Pichia kudriavzevii [6] was inactive. Moreover, the result with Candida albicans [7] was inactive. For the same compound, the outcome in the data set on HCT-116 was Active.
For the compound `COC(=O)[C@H]1N=C1/C=C\CCCCCCCCC/C=C(/Cl)Br`, the outcome with Nakaseomyces glabratus [1], in the data set on Candida albicans [2], with Candida albicans [3], in the data set with Cryptococcus gattii [4], in the data set with Cryptococcus neoformans [5] and in the data set with Pichia kudriavzevii [6] was inactive. Moreover, the outcome in the data set on Candida albicans [7] was inactive. Moreover, the outcome in the data set on HCT-116 was Active.
Consider `CCCCCCCCCCCCCC#CC1=N[C@H]1C(=O)OC`, for which the outcome in the data set with Candida albicans [10], with Candida albicans [11], with Pichia kudriavzevii [12], in the data set on Nakaseomyces glabratus [8], in the data set on Cryptococcus gattii [13] and in the data set with Candida albicans [9] was Active. Moreover, the outcome with Cryptococcus neoformans [14] was Active.
